One data set relates to DLBCL cell line LY7. Nature of the data set: LY7 viability (Cell Titer Glo). It counts as cell-based, human. Particulars: for activity inhibiting LY7 lymphoma cells (viability): 24 h, 10-50 μM, single agents. For orientation: In ATP-based viability assays light output follows the ATP content of the culture.
Data set [1] deals with cap dependent translation downstream of the 5′ UTR of c-MYC. In words: Bicistronic luciferase reporter assay for c-Myc 5'UTR driven translation in LY7. It counts as cell-based, human. Particulars: LY7 stably expressing reporter, 24 hr, 25 μM.
The target of data set [2] is T1, CK1ε (Homo sapiens, UniProt P49674). Nature of the data set: CK1ε kinase activity assay (ADP-Glo, Promega).
Description: CK1ε kinase activity was determined using the CK1ε enzyme system from Promega, according to the manufacturer's instruction. […] The luminescent signal positively correlates with ADP amount and kinase activity.
Next, the CK1ε inhibiting activity of the above compounds was experimentally determined using the ADP-Glo™ Kinase Assay kit from Promega and recombinant CK1ε expressed by baculovirus in Sf9 insect cells.
For data set [3], the target named is T1, CK1ε. Nature of the data set: CK1ε autophosphorylation assay (calyculin A, Western blot). It counts as cell-based. The arrangement: Full-length recombinant human CK1ε (CK1epsilon) was expressed by baculovirus in Sf9 insect cells; GST (N); purchased Promega; host or cells: Sf9 insect cells (baculovirus). (A western blot detects proteins with antibodies after separation by electrophoresis.)

The test system of data set [4] is phosphorylation of 4EBP1 and protein level of c-Myc in LY7 cells. In words: Western blot, LY7 cells. The data set is classed as cell-based, human. The note with it: for expression of c-Myc at 24 h: single agents.
Data set [5] has as its system PI3K-AKT-mTOR-eIF4F-Myc signal cascade in LY10 cells. The note with it: LY10, 24 h, PI3K inhibitors 3 μM, proteasome inhibitors 2 nM, single or combined.
In data set [6] the test system is patients with DLBCL. In words: Clinical trials in patients with DLBCL. It counts as in vivo, human.
Data set [7] deals with phosphorylated AKT at Ser473. Nature of the data set: Inhibition of S473 p-AKT in serum-starved leukemia and lymphoma cell lines. Particulars: 1 μM, 4 hours. The data set is classed as cell-based, human.
A further data set concerns MOLT-4 cell line. Nature of the data set: Subcutaneous xenograft model of T-ALL (MOLT-4) in NOD/SCID mice. It counts as in vivo. Particulars: daily oral 150 mg/kg, day 24, p<0.001.
For the next data set, the system named is caspase 3/7. Nature of the data set: Activation of caspase 3/7 in LY10. The data set is classed as cell-based, human. The note with it: LY10, 24 h. The source says:
FIG. 3. […] FIG. 3L-N: PARP cleavage.

A further data set is described as follows: Western blot, LY7 cells. It counts as cell-based, human. The note with it: LY7 and LY10, 24 h.
Data set [8] concerns the target T1, CK1ε. In words: Kinome profiling (Reaction Biology, radioisotope filter binding). Particulars: cell free, 1 μM.
Description: Kinome profiling was performed using the radioisotope filter binding assay from Reaction Biology.
In data set [9] the test system is primary CLL and MCL cells. Nature of the data set: Cytotoxicity in primary CLL and MCL cells. Particulars: 48 hours.
Description: Pharmacological activities of PI3K and proteasome inhibitors in primary lymphoma cells. […] Cytotoxicity. Primary cells were isolated by ficoll gradient separation from three patients with SLL (FIG. 6A & FIG. 6B), CLL (FIG. 6C & FIG. 6D), MCL (FIG. 6E & FIG. 6F) respectively. The SLL cells were from pleural fluid, and the CLL and MCL cells were from peripheral blood. The cells were incubated with the experimental drugs as single agents and in combinations for 48 hours. The viability was determined by Cell Titer Glo, and presented as a function of each treatment conditions, as a percentage of the untreated control.
(§1) Blood from consented patients was drawn into 10 ml EDTA-vacutainers. Blood was mixed with PBS containing 2 mM EDTA and 0.5% BSA in a 1:2 Ratio Blood to PBS. Next fifteen milliliters of Ficoll-Paque Plus (GE Healthcare) was pipetted into 50 ml centrifuge tubes, with blood-PBS mixture layered on top. Tubes were centrifuged at 400×g for 40 min at room temperature with no brake. PBMC's in the buffy coat were collected by pipette and washed in EDTA-BSA PBS. Supernatant was removed and 10 ml ACK Lysis Buffer (Thermo Fisher) was used to remove Erythrocytes. Pellets were again washed in EDTA-BSA PBS, resuspended and counted via automated cell counter. Cytotoxicity and Western Blotting assays were performed according to protocol.
For a further data set, the system named is primary AITL cells. In words: Cytotoxicity in primary AITL cells. The data set is classed as cell-based, human.
For data set [10], the system named is patients with DLBCL. The note with it: 9 patients; Westin 2014; cited from earlier work.
Another data set relates to primary SLL cells. Nature of the data set: Cytotoxicity in primary SLL cells (Cell Titer Glo). It counts as cell-based, human. The note with it: 48 hours, 2.5, 5, and 7.5 nM.
The next data set relates to DLBCL cell line LY10. Nature of the data set: Growth inhibition / viability of LY10 cells (CellTiter Glo), single agents and combinations, Bliss synergy. It counts as cell-based, human. The note with it: LY10, 24 h, single agent.

Molecules are shown by their SMILES.

As usually defined, the IC50 is the midpoint of a concentration-inhibition curve.

T1 sequence (P49674 whole entry): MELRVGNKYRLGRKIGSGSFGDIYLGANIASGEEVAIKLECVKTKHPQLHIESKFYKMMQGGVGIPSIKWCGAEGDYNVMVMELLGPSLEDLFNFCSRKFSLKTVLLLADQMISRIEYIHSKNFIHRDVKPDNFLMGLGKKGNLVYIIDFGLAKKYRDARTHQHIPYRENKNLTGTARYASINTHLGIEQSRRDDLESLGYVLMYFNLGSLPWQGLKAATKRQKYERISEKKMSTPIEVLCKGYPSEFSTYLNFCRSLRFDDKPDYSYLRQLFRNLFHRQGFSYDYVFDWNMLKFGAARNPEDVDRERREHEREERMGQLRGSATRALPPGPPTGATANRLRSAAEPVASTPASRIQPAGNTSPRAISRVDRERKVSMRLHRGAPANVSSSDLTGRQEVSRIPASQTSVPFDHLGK
Description for primary AITL cells: as §1

Regarding `Nc1ncnc2c1c(COc1cccc(Cl)c1)nn2C1CCOCC1` [PF4800567], the “activity inhibiting LY7 lymphoma cells (viability)” value with DLBCL cell line LY7 was “only mild and comparable activity”. Also, the “reduction of ratio of LucR/LucF by 50%” value in data set [1] is recorded as “not”. At CK1ε [2], this molecule yielded a half-inhibitory concentration (IC50) of 0.0074 µM. Also, the “autophosphorylation of CK1ε (up-shifting of the CK1ε band)” value on CK1ε [3] (LY7, 1 μM, 1 h pretreatment then calyculin A) was “no up-shifting”. For the same molecule, in [4] (LY7, 6 hours, 25-50 μM), the “suppression of phosphorylation of 4EBP1 and protein level of c-Myc” value (“suppression” below) is “only at the concentration of 50 μM”. In addition, the “phosphorylation of p70S6K1” value in data set [4] (LY7, 24 h) is “substantially increased”.
As to `CC(C)Oc1ccc(-c2nn([C@@H](C)c3oc4ccc(F)cc4c(=O)c3-c3cccc(F)c3)c3ncnc(N)c23)cc1F` [TGR-1202], in the data set on DLBCL cell line LY7, the “activity inhibiting LY7 lymphoma cells (viability)” value is “significantly more effective than idelalisib and PF4800567”. Also, the “potency in cytotoxicity assay” value in the data set on DLBCL cell line LY7 (LY7, 24 h) is “most potent among these compounds”. Besides, the “synergy with PP242 inhibiting phosphorylation of 4EBP1 at T70 and cell viability” value with DLBCL cell line LY7 (LY7, PP […], other drugs 5 and 15 μM) is recorded as “synergistic with PP242”. The “inhibition of phosphorylation of 4EBP1” value in [5] is recorded as “moderately inhibit”. The “partial response in patients with DLBCL” value in the data set with patients with DLBCL [6] was 3 of 14. This molecule came in with a half-maximal inhibitory concentration (IC50) against CK1ε [2] of 6 µM. Besides, the “reduction of phosphorylation of AKT (Ser473)” value in data set [7] is listed as 43-87%. Also, the “tumor response in xenograft” value in the data set on MOLT-4 cell line is “significantly shrank the tumors”. The “effect on caspase 3/7 activation by carfilzomib” value in the data set on caspase 3/7 (1 μM added to carfilzomib) is “markedly enhanced”. In addition, in the data set “Western blot, LY7 cells”, the beta-catenin level entry is “inhibited beta-catenin”. In addition, the “suppression” value in data set [4] (LY7, 6 h, 15-50 μM) was “more potent than idelalisib and PF4800567”. Also, the “suppression” value in data set [4] (LY7, 6 hours, 25-50 μM) is given as “potently suppressed”. In addition, in data set [4] (LY7, 24 h), the “reduction of protein level of c-Myc” value is “more effective than idelalisib and PF4800567”; the “expression of c-Myc at 24 h” value is “not relieved”. Also, the “inhibition of phosphorylation of 4EBP1 and protein level of c-Myc” value in data set [4] (LY7, 24 h, 25 μM) is “highly effective”.
Consider `CC[C@H](Nc1ncnc2nc[nH]c12)c1nc2cccc(F)c2c(=O)n1-c1ccccc1` [Idelalisib], for which the “inhibition of kinase activity of CK1 epsilon” value at CK1ε [8] is “not observed”. Moreover, the “activity inhibiting LY7 lymphoma cells (viability)” value in the data set on DLBCL cell line LY7 is “only mild and comparable activity”. For the same molecule, the “enhancement of cytotoxicity of bortezomib” value in data set [9] is listed as “did not enhance”. Further, in data set [5], the “inhibition of phosphorylation of 4EBP1” value is “moderately inhibit” and the “inhibition of phosphorylation of AKT” value is “more effective than TGR-1202”. Besides, in the data set with primary AITL cells, the “single agent activity in AITL” value is recorded as “more effective than TGR-1202”. In addition, the “responses in patients with DLBCL” value with patients with DLBCL [10] is reported as “did not produce any responses”. At CK1ε [2], the IC50 was > 50 µM. The “effect on caspase activation caused by bortezomib” value with caspase 3/7 (5 μM added to bortezomib) is reported as “failed to augment”. In data set [4] (LY7, 6 hours, 25-50 μM), the “suppression” value is “only at the concentration of 50 μM”. Besides, the “expression of c-Myc at 24 h” value in [4] (LY7, 24 h) was “rebounded”.
For `CC(C)C[C@H](NC(=O)[C@H](Cc1ccccc1)NC(=O)c1cnccn1)B(O)O` [Bortezomib, [(1R)-3-methyl-1-({(2S)-3-phenyl-2-[(pyrazin-2-ylcarbonyl)amino]propanoyl}amino)butyl]boronic acid], in [5], the “inhibition of phosphorylation of 4EBP1” value was “marginal or no inhibition”; the “inhibition of phosphorylation of AKT” value was “comparable and modest inhibition”. Further, in the data set on primary AITL cells, the “single agent activity in AITL” value is “more potent than carfilzomib”. Besides, in the data set on primary SLL cells, the “inhibition of primary cells” value was 10-80%. In the data set on DLBCL cell line LY10 (1 to 3 nM), the “percentage of growth inhibition” value is “did not produce significant inhibition”. In addition, the “percentage of growth inhibition” value in the data set with DLBCL cell line LY10 (4 to 8 nM) is reported as 42-90%.
As for `CC(C)n1nc(-c2cc3cc(O)ccc3[nH]2)c2c(N)ncnc21` [PP242], the “phosphorylation of p70S6K1” value in [4] (LY7, 24 h) is reported as “potently inhibited”. Further, in [4] (LY7, 24 h, 750 nM), the “phosphorylation of 4EBP1 at S65” value is reported as “markedly inhibited”. In data set [4] (LY7, 24 h, PP242 treatment), the “level of c-Myc” value is given as “moderately reduced”.
`CC(C)C[C@H](NC(=O)[C@H](CCc1ccccc1)NC(=O)CN1CCOCC1)C(=O)N[C@@H](Cc1ccccc1)C(=O)N[C@@H](CC(C)C)C(=O)[C@@]1(C)CO1` [Carfilzomib, (S)-4-methyl-N—((S)-1-(((S)-4-methyl-1-((R)-2-methyloxiran-2-yl)-1-oxopentan-2-yl)amino)-1-oxo-3-phenylpropan-2-yl)-2-((S)-2-(2-morpholinoacetamido)-4-phenylbutanamido)pentanamide]: in data set [5], the “inhibition of phosphorylation of 4EBP1” value is recorded as “marginal or no inhibition”; the “inhibition of phosphorylation of AKT” value is “comparable and modest inhibition”. Further, the “inhibition of primary cells” value with primary SLL cells is recorded as 10-90%. Besides, in the data set with DLBCL cell line LY10 (1 to 2 nM), the “percentage of growth inhibition” value is listed as “up to 35%”.
As to `CC(C)Oc1ccc(-c2nn([C@@H](C)c3nc4cccc(F)c4c(=O)n3-c3ccccc3)c3ncnc(N)c23)cc1F` [CUX-03173], half-maximal inhibition on CK1ε [2] (IC50) required 9.4 µM. The “autophosphorylation of CK1ε” value on CK1ε [3] (LY7, 15 μM, then calyculin A) is listed as “inhibited”. Also, the beta-catenin level result in “Western blot, LY7 cells” was “inhibited beta-catenin”. Also, in [4] (LY7, 24 h), the “reduction of protein level of c-Myc” value was “more effective than idelalisib and PF4800567”. The “inhibition of protein level of c-Myc” value in data set [4] (LY7 and LY10, 24 h) is “as potent as TGR-1202”.
For the molecule `CC(Nc1ncnc2[nH]cnc12)c1cc2cccc(Cl)c2c(=O)n1-c1ccccc1` (stereo not drawn) [IPI-145], the “inhibition of kinase activity of CK1 epsilon” value on CK1ε [8] is “not observed”.

The values above are taken from US20190070183A1, “Targeting Casein Kinase-1 and PI3K/AKT/mTOR Pathways for Treatment of c-Myc-Overexpressing Cancers, Organ Transplant Associated Complications and Autoimmune Diseases” (The Trustees of Columbia University in the City of New York, priority 2015, published 2019).
